One test addresses T1, FcγRI (Homo sapiens, UniProt P12314).
T1 construct: expressed in transfected cells; host or cells: Jurkat (NFAT-luciferase reporter)
Kind of test: FcγR Jurkat NFAT-luciferase reporter cell assay with SKBR3 target cells. The test is classed as cell-based. The method, then: (§1) Cellular FcγR signaling was measured in a cell-based assay that uses SKBR3 target cells that endogenously express B7-H4 and Jurkat effector cells engineered to express FcγRI, RIIa, or RIII and an NFAT (nuclear factor of activated T cells) driven luciferase reporter gene. […] The luciferase signal is proportional to the degree of FcγR-induced effector cell activation and serves as a surrogate for ADCC (FcγRIII) or ADCP (FcγRI/IIa).
(§2) Specifically, Jurkat effector cells engineered to express FcγRI, RIIa, or RIII and an NFAT (nuclear factor of activated T cells) driven luciferase reporter gene were thawed and cultured in NFAT reporter cell medium (RPMI 1640 Medium (Gibco #11875-093) supplemented with 4% HyClone™ Fetal Bovine Serum, Super Low IgG (Gibco #A33819-01), 1× Penicillin-Streptomycin (Gibco #15140-122), 1×MEM nonessential amino acids (Gibco #11140-050), 1× L-Glutamine (Gibco #25030-081), 1× Sodium pyruvate (Gibco #11360-070), Hygromycin (Invitrogen #10687), Antibiotic G-418 sulfate solution (Promega #V8091), HEPES (Gibco #15630)). The Jurkat FcγR signaling assay was then performed as follows:
(§3) The day before the assay, target SKBR3 cells were lifted using Versene (Gibco #15040-066), washed twice with PBS, and plated at 1.2×10^4 cells per well in 90 μL RPMI 1640 containing 10% low IgG FBS and penicillin/streptomycin in black-walled 96-well plates (Corning #3603). The following day, NFAT assay buffer was prepared by adding 4 mL low IgG serum to 100 mL of RPMI 1640, mixed, and warmed to 37° C. NFAT assay buffer was used to resuspend all cells and antibody dilutions. Stock dilution plates (10×) of each antibody were prepared at 100, 30, 10, 3, 1, 0.3, 0.1, 0.03, 0.01, and 0.003 μg/mL. […] Effector cells were counted, washed twice in PBS, and resuspended at 1×10^6 cells/mL in NFAT assay buffer. […] Luminescence was measured for all samples with the Envision 96 CTG protocol (Envision plate reader, PerkinElmer) after mixing on a shaker (covered with foil) for at least 5 minutes. Background (no cells) signal was subtracted from the raw luminescence signal prior to graphing.

In a further test the target is T2, FcγRIII (Homo sapiens, UniProt P08637).
T2 construct: expressed in transfected cells; host or cells: Jurkat (NFAT-luciferase reporter)
T2 sequence (P08637 17-254): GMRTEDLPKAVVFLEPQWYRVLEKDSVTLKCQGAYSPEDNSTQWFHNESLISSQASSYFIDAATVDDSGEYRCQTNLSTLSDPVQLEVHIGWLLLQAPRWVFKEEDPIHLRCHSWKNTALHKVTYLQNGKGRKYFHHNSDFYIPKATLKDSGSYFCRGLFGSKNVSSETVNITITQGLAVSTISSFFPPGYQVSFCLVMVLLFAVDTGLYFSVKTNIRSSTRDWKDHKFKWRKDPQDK
Described as above. Format: cell-based. The protocol: as §1, §2, §3

Test [1] deals with MDA-MB-468 xenograft model. Kind of test: MDA-MB-468 xenograft dose range, Study MDAMB468-9. The test is classed as in vivo, NSG mice. The conditions noted are these: three weekly doses. The protocol: Tumor volume was measured twice weekly until study day 85.
Female NSG mice were implanted with 1×10^6MDA-MB-468 cells in 25% Matrigel H C (Corning #354248) subcutaneously. Once tumor volumes reached 100 mm^3, mice were randomized into treatment groups of 5 mice each and dosed with 0.3, 1, or 3 mg/kg every seven days for three total doses (q7dx3). Twenty-four hours prior to receiving each ADC dose, each animal was treated with 10 mg/kg hIVIG (Grifolds). Tumor volumes were measured twice per week, animals were euthanized when tumor volume reached 700-1000 mm^3. Stock concentrations of ADC were diluted to desired concentration (with 0.01% Tween20 in PBS) and injected i.p. into each treatment group.

Test [2] concerns SKBR3, MX-1, and 293T-B7-H4. The test can be described thus: NK cell-mediated ADCC. The test is classed as cell-based, human. To be noted: NK effector cells, 4 hours. The source says:
Antibodies directed to cell surface antigens can elicit direct killing of antibody-coated cells, including induction of ADCC.
Human PBMCs were thawed into pre-warmed R10+ Media (RPMI 1640 (Gibco #11875-093) with 10% HI-FBS (Gibco #16140-071), 1× sodium pyruvate (Gibco #11360-070), and 1× GlutaMax (Gibco #35050-061)) and then an EasySep NK isolation kit (StemCell #17955) was used to purify NK cells. Target tumor cells were lifted off using TrypLE Express (Gibco #12604-021) and then plated into a U-bottom plate (Falcon #353077) at 40,000 cells/well (50 μL/well) for MX-1 and 293T-B7-H4 (HEK 293T cells engineered to express human B7-H4) and 20,000 cells/well (50 μL/well) for SKBR3 cell line. […] (NOTE: actual starting concentration was 6000 ng/mL to account for the inherent 3× dilution of the assay.) Then 200,000 cells/well (50 μL/well) of isolated NK cells were plated into the U-bottom plate (effector: tumor ratios were as follows: NK:SKBR3 cells 10:1; NK:MX1 cells 5:1, NK:293T-B7-H4 cells 5:1). Appropriate controls included: positive control mAb and ADC and negative non-binding control mAb and ADC, NK cells only control, target cells only control, target cells maximum lysis control, and media only control. […] A CytoTox 96 Non-Radioactive Cytotoxicity Assay kit (Promega #G1780) was used to develop the signal, which was read using 490 nm wavelength on a SpectraMax 190 instrument.

T1 sequence (P12314 16-374): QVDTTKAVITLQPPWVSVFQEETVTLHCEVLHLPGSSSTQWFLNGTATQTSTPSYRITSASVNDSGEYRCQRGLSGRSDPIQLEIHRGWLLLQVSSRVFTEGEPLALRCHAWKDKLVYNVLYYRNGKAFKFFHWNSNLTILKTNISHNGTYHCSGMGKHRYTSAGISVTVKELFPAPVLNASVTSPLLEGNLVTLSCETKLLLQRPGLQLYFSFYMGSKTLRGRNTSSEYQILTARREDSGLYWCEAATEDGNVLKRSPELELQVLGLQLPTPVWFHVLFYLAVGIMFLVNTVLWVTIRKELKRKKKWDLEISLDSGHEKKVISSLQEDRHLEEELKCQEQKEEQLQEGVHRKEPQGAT

Take “SGN-B7H4V: ADC of fully human IgG1 anti-B7-H4 mAb conjugated to monomethyl auristatin E (MMAE) via a protease-cleavable valine-citrulline linker (vedotin)”: in the test with FcγRI, the FcγRI-mediated luciferase activity entry is “dose-dependent increase”. Besides, the FcγRIII-mediated luciferase activity entry in the test with FcγRIII is reported as “dose-dependent increase”. The figures for the “anti-tumor activity (tumor volume)” value in test [1] (0.3 mg/kg), in test [1] (1 mg/kg) and in test [1] (3 mg/kg) were “minimal anti-tumor activity”, “transient regression of tumor volumes in all mice” and “transient regression of tumor volumes in all mice”, respectively. Also, the ADCC response entry in test [2] was “comparable ADCC responses”.
